# Experimental data taken from DBAASP.
# How the values were obtained:
# Assay in all cases: ≥ marks a high value that may be exact or a test limit, other limits are often not marked, values filed in µg/mL are converted to µM
# [1] = test system: Streptococcus mutans UA159
# [2] = test system: Streptococcus sanguinis NY101
# [3] = test system: Enterococcus faecalis
# [4] = test system: Streptococcus sobrinus ATCC 33478
# [5] = test system: Pseudomonas aeruginosa PAK
# [6] = test system: Staphylococcus aureus
# [7] = test system: Escherichia coli W3110
# [8] = test system: Staphylococcus aureus ATCC 9144
# [9] = test system: Candida albicans ATCC 10231
# [10] = test system: Aureobasidium pullulans
# [11] = test system: Micrococcus luteus
# [12] = test system: Corynebacterium glutamicum ATCC 13032
# [13] = test system: Bacillus megaterium
# [14] = test system: Bacillus subtilis ATCC 23857
# [15] = test system: Escherichia coli ATCC 25922
# [16] = test system: Pseudomonas aeruginosa ATCC 27853
# [17] = test system: Bacillus subtilis MTCC 14416
# [18] = test system: Vibrio cholerae
# [19] = test system: Staphylococcus aureus ATCC 43300
# [20] = test system: Staphylococcus aureus MTCC 9542
# [21] = test system: Escherichia coli MG1655
# [22] = test system: Enterococcus faecalis ATCC 29212
# [23] = test system: Streptococcus mitis ATCC 903
# [24] = test system: Streptococcus gordonii Challis DL1
SMILES,MIC [1],MIC [2],MIC [3],MIC [4],MIC [5],MIC [6],MIC [7],MIC [8],MIC [9],MIC [10],MIC [12],MIC [15],MIC [16],further results
CC[C@H](C)[C@H](NC(=O)[C@H](Cc1ccccc1)NC(=O)[C@H](Cc1cnc[nH]1)NC(=O)[C@H](CCCCN)NC(=O)[C@@H](NC(=O)[C@H](Cc1ccccc1)NC(=O)[C@@H]1CCCN1C(=O)[C@H](CO)NC(=O)CNC(=O)[C@H](CO)NC(=O)[C@@H]1CCCN1C(=O)[C@H](Cc1ccccc1)NC(=O)[C@H](Cc1cnc[nH]1)NC(=O)[C@H](CC(C)C)NC(=O)[C@H](Cc1cnc[nH]1)NC(=O)[C@H](Cc1ccccc1)NC(=O)[C@H](Cc1cnc[nH]1)NC(=O)[C@@H](N)Cc1ccccc1)[C@@H](C)CC)C(=O)N[C@@H](Cc1cnc[nH]1)C(=O)N[C@@H](CCCN=C(N)N)C(=O)N[C@@H](Cc1ccccc1)C(N)=O [FHFHLHFPSGSPFIKHFIHRF],23.7 µM,23.7 µM,≥ 94.8 µM,23.7 µM,≥ 190 µM,> 190 µM,≥ 47.4 µM,,,,,,,
CC(C)C[C@H](NC(=O)[C@H](CC(C)C)NC(=O)[C@H](CC(C)C)NC(=O)[C@@H]1CCCN1C(=O)[C@H](CCCN=C(N)N)NC(=O)[C@H](CCCN=C(N)N)NC(=O)CN)C(=O)N[C@@H](CCCN=C(N)N)C(=O)N[C@@H](C)C(=O)N[C@@H](CCCN=C(N)N)C(N)=O [GRRPLLLRAR],,,,,,,,≥ 207 µM,104 µM,≥ 207 µM,25.9 µM,> 207 µM,> 207 µM,MIC [11]: ≥ 51.8 µM; MIC [13]: 6.46 µM; MIC [14]: ≥ 207 µM
C[C@H](NC(=O)[C@H](CCCN=C(N)N)NC(=O)[C@H](Cc1c[nH]c2ccccc12)NC(=O)[C@H](Cc1c[nH]c2ccccc12)NC(=O)[C@H](Cc1c[nH]c2ccccc12)NC(=O)[C@H](Cc1c[nH]c2ccccc12)NC(=O)[C@H](CCCN=C(N)N)NC(=O)[C@H](CCCN=C(N)N)NC(=O)CN)C(=O)N[C@@H](CCCN=C(N)N)C(N)=O [GRRWWWWRAR],,,,,,,,≥ 41.2 µM,41.2 µM,≥ 41.2 µM,5.15 µM,10.3 µM,20.7 µM,MIC [11]: 10.3 µM; MIC [13]: 2.57 µM; MIC [14]: 5.15 µM
CC(C)[C@H](NC(=O)[C@H](CCCCN)NC(=O)[C@H](C)NC(=O)[C@@H](NC(=O)[C@@H](NC(=O)[C@H](C)NC(=O)[C@H](CCCN=C(N)N)NC(=O)[C@H](Cc1c[nH]c2ccccc12)NC(=O)[C@H](Cc1c[nH]c2ccccc12)NC(=O)CN)[C@@H](C)O)C(C)C)C(=O)N[C@@H](CCCN=C(N)N)C(=O)N[C@@H](CCCCN)C(N)=O [GWWRATVAKVRK],,,,,,,,≥ 100 µM,25 µM,25 µM,0.8 µM,6.3 µM,25 µM,

# Continued, in another order:
MIC [1],MIC [2],MIC [3],MIC [4],MIC [5],MIC [6],MIC [7],MIC [8],MIC [9],MIC [10],MIC [12],MIC [15],MIC [16],SMILES,further results
,,,,,,,,,,,,> 46.6 µM,CC[C@H](C)[C@H](N)C(=O)N[C@@H](C)C(=O)NCC(=O)N[C@@H](CC(C)C)C(=O)N[C@@H](C)C(=O)N[C@@H](C)C(=O)N[C@@H](CC(N)=O)C(=O)N[C@@H](Cc1ccccc1)C(=O)N[C@@H](CC(C)C)C(=O)N1CCC[C@H]1C(=O)N[C@@H](CCC(N)=O)C(=O)N[C@H](C(=O)N[C@@H](CC(C)C)C(=O)N[C@H]1CSSC[C@@H](C(N)=O)NC(=O)[C@H](CCCCN)NC(=O)[C@H](CCCN=C(N)N)NC(=O)[C@H](C)NC(=O)[C@H]([C@@H](C)CC)NC(=O)[C@H](CCCCN)NC1=O)[C@@H](C)CC [IAGLAANFLPQILCKIARKC],MIC [17]: ≥ 46.6 µM; MIC [18]: 11.7 µM; MIC [19]: > 46.6 µM; MIC [20]: 11.7 µM; MIC [21]: 23.3 µM
,,,,,,,,,,,,> 44 µM,CC[C@H](C)[C@@H]1NC(=O)[C@H](CCCCN)NC(=O)[C@@H](NC(=O)[C@H](CC(C)C)NC(=O)[C@@H](NC(=O)[C@H](CCC(N)=O)NC(=O)[C@@H]2CCCN2C(=O)[C@H](CC(C)C)NC(=O)[C@H](Cc2ccccc2)NC(=O)[C@H](CC(N)=O)NC(=O)[C@H](C)NC(=O)[C@H](C)NC(=O)[C@H](CC(C)C)NC(=O)CNC(=O)[C@H](C)NC(=O)[C@@H](NC(=O)[C@@H](N)CCCCN)[C@@H](C)CC)[C@@H](C)CC)CSSC[C@@H](C(N)=O)NC(=O)[C@H](CCCCN)NC(=O)[C@H](CCCN=C(N)N)NC(=O)[C@H](C)NC1=O [KIAGLAANFLPQILCKIARKC],MIC [17]: ≥ 44 µM; MIC [18]: 11 µM; MIC [19]: > 44 µM; MIC [20]: 5.5 µM; MIC [21]: 11 µM; MIC [22]: 22 µM
7.02 µM,27.4 µM,14 µM,14 µM,≥ 110 µM,27.4 µM,≥ 110 µM,,,,,,,CC[C@H](C)[C@H](NC(=O)[C@H](Cc1cnc[nH]1)NC(=O)[C@H](CCCCN)NC(=O)[C@@H](NC(=O)[C@@H](N)CC(C)C)[C@@H](C)CC)C(=O)N[C@@H](CC(C)C)C(=O)N[C@@H](Cc1cnc[nH]1)C(=O)N[C@@H](CCCN=C(N)N)C(=O)N[C@@H](CC(C)C)C(=O)NCC(=O)NCC(=O)NCC(=O)N[C@@H](Cc1ccccc1)C(=O)N[C@@H](Cc1cnc[nH]1)C(=O)N[C@@H](Cc1ccccc1)C(=O)N[C@@H](Cc1cnc[nH]1)C(=O)N[C@@H](CC(C)C)C(=O)N[C@@H](Cc1cnc[nH]1)C(=O)N[C@@H](Cc1ccccc1)C(N)=O [LIKHILHRLGGGFHFHLHF],
≥ 348 µM,≥ 348 µM,≥ 348 µM,≥ 348 µM,≥ 348 µM,> 348 µM,≥ 348 µM,,,,,,,NC(=O)CC[C@H](NC(=O)[C@H](Cc1c[nH]c2ccccc12)NC(=O)[C@@H](N)Cc1c[nH]c2ccccc12)C(=O)N[C@@H](CC(=O)O)C(=O)N[C@@H](Cc1c[nH]c2ccccc12)C(=O)N[C@@H](Cc1c[nH]c2ccccc12)C(=O)N[C@@H](CC(N)=O)C(=O)N[C@@H](CCC(=O)O)C(=O)N[C@@H](Cc1c[nH]c2ccccc12)C(N)=O [WWQDWWNEW],MIC [23]: ≥ 348 µM; MIC [24]: ≥ 348 µM
